Laboratory results from US20180312473A1, “PHENAZINE DERIVATIVES AS ANTIMICROBIAL AGENTS” (priority 2015, published 2018).
Values after ≈ are worked out from the molar mass of the structure shown. Like-named read-outs stand apart in the source and are kept apart here.

Assays:
[1] = test system: MRSE (S. epidermidis ATCC 35984) planktonic cells and biofilms; assay: Calgary Biofilm Device (CBD) assay, MBC/MBEC; format: cell-based, Staphylococcus epidermidis; conditions: Staphylococcus epidermidis; Table 8; read-out: MRSE 35984 MBC
[2] = test system: MRSA-2 planktonic cells and biofilms; assay: Calgary Biofilm Device (CBD) assay, MBC/MBEC; format: cell-based, Staphylococcus aureus
human red blood cells = assay: Hemolysis assay with red blood cells
Procedure: The hemolysis activities of select compounds of the invention were determined. […] The washing was repeated three times with the buffer. In 96-well plate, test compounds were added to the buffer from DMSO stocks. […] The plate was then incubated for 1 hour at 37° C. After incubation, the plate was centrifuged for 5 minutes at 3,500 rpm. Then 80 μL of the supernatant was transferred to another 96-well plate, and the optical density (OD) was read at 405 nm. DMSO served as the negative control (0% hemolysis), while Triton X served as the positive control (100% hemolysis). The percent of hemolysis was calculated as (OD405 of the compound−OD405 of DMSO)/(OD405 of Triton X−OD405 of the buffer).
The washing was repeated three times with the buffer. In 96-well plate, test compounds were added to the buffer from DMSO stocks. […] The plate was then incubated for 1 hour at 37° C. After incubation, the plate was centrifuged for 5 minutes at 3,500 rpm. Then 80 μL of the supernatant was transferred to another 96-well plate and the optical density (OD) was read at 405 nm. DMSO served as our negative control (0% hemolysis) while Triton X served as our positive control (100% hemolysis). The percent of hemolysis was calculated as (OD405 of the test compound−OD405 DMSO)/(OD405 Triton X−OD405 buffer) from three independent experiments.

[3] = test system: MRSA-2 (methicillin-resistant Staphylococcus aureus clinical isolate); assay: MIC assay (broth microdilution, CLSI); format: cell-based; conditions: read-out: MIC, MRSA-2
[4] = test system: Staphylococcus epidermidis (ATCC 35984), MRSE; assay: MIC assay (broth microdilution, CLSI); format: cell-based
in vitro = format: cell-based; conditions: human
Procedure: (§1) The cytotoxicities of select compounds of the invention against HeLa cells were determined. HeLa cytotoxicity was assessed using the LDH release assay described by CYTOTOX96 (Promega G1780). HeLa cells were grown in Dulbecco's Modified Eagle Medium (DMEM; Gibco) supplemented with 10% Fetal Bovine Serum (FBS) at 37° C. with 5% CO2. […] Triton X-100 (at 2% v/v) was used as the positive control for maximum lactate dehydrogenate (LDH) activity in this assay (e.g., complete cell death), while “medium only” lanes served as negative control lanes (e.g., no cell death). DMSO was used as the vehicle control. […] Finally, Stop Solution (50 μL) was added to the incubating plates, and the absorbance was measured at 490 nm.
(§2) HeLa cytotoxicity was assessed using the LDH release assay described by CYTOTOX96 (Promega G1780). HeLa cells were grown in Dulbecco's Modified Eagle Medium (DMEM; Gibco) supplemented with 10% Fetal Bovine Serum (FBS) at 37° C. with 5% CO2. […] Triton X-100 (at 2% v/v) was used as the positive control for maximum lactate dehydrogenate (LDH) activity in this assay (e.g., complete cell death), while “medium only” lanes served as negative control lanes (e.g., no cell death). DMSO was used as our vehicle control. […] Finally, Stop Solution (50 μL) was added to the incubating plates and the absorbance was measured at 490 nm. Results are from three independent experiments (FIG. 19)

HeLa cells = assay: in vitro; format: cell-based
Procedure: as §1, §2

[5] = test system: VRE (E. faecium ATCC 700221) planktonic cells and biofilms; assay: Calgary Biofilm Device (CBD) assay, MBC/MBEC; format: cell-based, Enterococcus faecium; conditions: Enterococcus; Table 8; c lowest concentration tested; read-out: VRE 700221 MBC
MRSA BAA-1707 = assay: MIC assay (broth microdilution, CLSI); conditions: Staphylococcus aureus, read-out: MIC, MRSA BAA-1707
[6] = test system: Enterococcus faecium (ATCC 700221), VRE; assay: MIC assay (broth microdilution, CLSI); format: cell-based
MRSA BAA-44 = assay: MIC assay (broth microdilution, CLSI); conditions: Staphylococcus aureus, read-out: MIC, MRSA BAA-44
[7] = test system: MRSA-1 (methicillin-resistant Staphylococcus aureus clinical isolate); assay: MIC assay (broth microdilution, CLSI); format: cell-based; conditions: Table 2A
[8] = test system: Staphylococcus epidermidis (ATCC 12228); assay: MIC assay (broth microdilution, CLSI); format: cell-based
E. faecium 700221 (VRE) = assay: MIC assay with Tiron or metal(II) cation co-treatment; format: cell-based, Enterococcus faecium
MRSA-2 = assay: as above; format: cell-based, Staphylococcus aureus
S. epidermidis 12228 = assay: as above; format: cell-based, Staphylococcus epidermidis
[9] = Staphylococcus aureus, MRSA, Table 8, a/b 2-/4-fold range in independent experiments, read-out: MRSA-2 MBC
[10] = Table 7, b lowest concentration tested, read-out: MIC, VRE 700221
[11] = E. faecium 700221, + loss, − increase of activity
[12] = MRSA-2, + loss, − increase of activity
[13] = S. epidermidis 12228, + loss, − increase of activity

With N#CC(C#N)=NNc1cccc(Cl)c1 [CCCP, carbonyl cyanide m-chlorophenyl hydrazone, reference compound] the MBC [1] was 31.3 µM (≈ 6.4 µg/mL), the MBC ([2]; Staphylococcus aureus, MRSA, Table 5, a/b midpoint of 2-/4-fold range, read-out: MRSA-2 MBC) was 31.3 µM (≈ 6.4 µg/mL) and the MBC [2, 9] was 31.3 µM (≈ 6.4 µg/mL). The “% Hemolysis at 200 μM” value (human red blood cells; 200 μM, red blood cells) was 3.5% and the “% Hemolysis at 200 μM” value (human red blood cells; Table 8, human red blood cells, 200 μM) was 3.5%.

For O=C(O)c1cn(C2CC2)c2cc(N3CCNCC3)c(F)cc2c1=O [Ciprofloxacin, ciprofloxacin, reference compound], the “% Hemolysis (200 μM)” value (human red blood cells; 200 μM, 1 h, 37 °C) was 1.8%.

Oc1c(I)cc(I)c2nc3ccccc3nc12 [Compound 4, 2,4,-Diiodo-1-hydroxyphenazine] gave an MIC ([3]; Staphylococcus aureus, MRSA, Table 7, a midpoint of 2-fold range, b lowest concentration tested) of 3.13 µM (≈ 1.4 µg/mL), an MIC ([3]; Table 2A) of 3.13 µM (≈ 1.4 µg/mL) and an MBC [1] of 31.3 µM (≈ 14 µg/mL). The MIC ([4]; Staphylococcus epidermidis, Table 7, read-out: MIC, MRSE 35984) was 1.17 µM (≈ 0.524 µg/mL), the “MIC, Staphylococcus epidermidis (ATCC 35984)” value ([4]; Table 2A) was 0.78 to 1.56 µM and the IC50 at 24 h (in vitro) was > 100 µM. The IC50 (HeLa cells) was > 100 µM, the MBC [5] was 23.5 µM (≈ 10.5 µg/mL) and the MIC (MRSA BAA-1707) was 3.13 µM (≈ 1.4 µg/mL). The MIC ([6]; Table 2A, read-out: MIC, Enterococcus faecium (ATCC 700221)) was 6.25 µM (≈ 2.8 µg/mL), the MIC [6, 10] was 6.25 µM (≈ 2.8 µg/mL) and the MIC (MRSA BAA-44) was 3.13 µM (≈ 1.4 µg/mL). For the same molecule, the “MIC, MRSA-1” value [7] was 0.78 to 1.56 µM, the MIC ([8]; Staphylococcus epidermidis, ATCC12228, Table 7, b lowest concentration tested, read-out: MIC, S. epidermidis 12228) was 1.56 µM (≈ 0.699 µg/mL) and the MIC ([8]; Table 2A, read-out: MIC, Staphylococcus epidermidis (ATCC 12228)) was 1.56 µM (≈ 0.699 µg/mL). The MBC [2, 9] was 31.3 µM (≈ 14 µg/mL), the “MBEC, MRSA-2” value ([2]; Table 4) was 93.8 µM and the “MBEC:MBC ratio, MRSA-2” value ([2]; Table 4) was 3.0. The MBC ([2]; Table 4, read-out: MBC, MRSA-2) was 31.3 µM (≈ 14 µg/mL), the “% Hemolysis (200 μM)” value (human red blood cells) was ≤1% and the “% Hemolysis at 200 μM” value (human red blood cells; human, 1 h, 200 μM, pH 7.2) was ≤1%.

In the case of Oc1cccc2cccnc12 [Compound 8-HQ, 8-hydroxyquinoline, reference compound], the MIC (E. faecium 700221 (VRE)) is reported as 18.8 µM, the “Fold Δ (Cu^2+)” value (E. faecium 700221 (VRE); [11]) is reported as “n.a. (insignificant changes in MIC values (≤2-fold changes))” and the “Fold Δ (Tiron)” value (E. faecium 700221 (VRE); [11]) is reported as “>+12”. The MIC (E. faecium 700221 (VRE); Enterococcus faecium, VRE) was 18.8 µM, the MIC (E. faecium 700221 (VRE); Enterococcus faecium, VRE, read-out: MIC with Cu^2+) was 18.8 µM and the MIC (E. faecium 700221 (VRE); Enterococcus faecium, VRE, read-out: MIC with Tiron) was > 100 µM. The “Fold Δ (MIC with Tiron vs MIC)” value (E. faecium 700221 (VRE); VRE 700221, + loss, − increase of activity) was “>+12”, the MIC (E. faecium 700221 (VRE); read-out: MIC with Tiron) was > 100 µM and the “effect of tiron co-treatment on antibacterial activity” value (MRSA-2; MRSA-2) was “complete loss of antibacterial activity”. For the same molecule, the MIC (MRSA-2; MRSA-2, 1 mM Tiron, read-out: MIC with Tiron) was >100 µM, the MIC (MRSA-2; MRSA-2, no additive (Table 9), read-out: MIC) was 6.25 µM and the “Fold Δ (Cu^2+)” value (MRSA-2; [12]) was “n.a. (insignificant changes in MIC values (<2-fold changes))”. For the same molecule, the “Fold Δ (Fe^2+)” value (MRSA-2; [12]) was “n.a. (insignificant changes in MIC values (<2-fold changes))”, the “Fold Δ (Tiron)” value (MRSA-2; [12]) was “+16” and the “Fold Δ (MIC with Tiron vs MIC)” value (MRSA-2; MRSA-2, + loss, − increase of antibacterial activity) was “+16”. It also gave an MIC (MRSA-2; Staphylococcus aureus, MRSA) of 6.25 µM, an MIC (MRSA-2; Staphylococcus aureus, MRSA, read-out: MIC with Cu^2+) of 3.13 µM and an MIC (MRSA-2; Staphylococcus aureus, MRSA, read-out: MIC with Fe^2+) of 6.25 µM. For the same molecule, the MIC (MRSA-2; Staphylococcus aureus, MRSA, read-out: MIC with Tiron) was > 100 µM, the MIC (S. epidermidis 12228; S. epidermidis 12228, 1 mM Tiron, read-out: MIC with Tiron) was >100 µM and the MIC (S. epidermidis 12228; S. epidermidis 12228, no additive, read-out: MIC) was 3.13 µM. For the same molecule, the “Fold Δ (Cu^2+)” value (S. epidermidis 12228; [13]) was “n.a. (insignificant changes in MIC values (≤2-fold changes))”, the “Fold Δ (MIC with Tiron vs MIC)” value (S. epidermidis 12228; [13]) was “>+32” and the “Fold Δ (Tiron)” value (S. epidermidis 12228; [13]) was “>+32”. The MIC (S. epidermidis 12228; Staphylococcus epidermidis, 12228) was 3.13 µM, the MIC (S. epidermidis 12228; Staphylococcus epidermidis, 12228, read-out: MIC with Cu^2+) was 3.13 µM and the MIC (S. epidermidis 12228; Staphylococcus epidermidis, 12228, read-out: MIC with Tiron) was > 100 µM.

In the case of Oc1c(I)cc(Br)c2nc3ccccc3nc12 [Compound 10, 4-Bromo-2-iodo-1-hydroxyphenazine], the melting point is reported as 188 to 190 °C, the MIC ([6]; Enterococcus faecium, Table 2A, read-out: MIC, Enterococcus faecium (ATCC 700221)) is reported as 6.25 µM (≈ 2.51 µg/mL) and the MIC [6, 10] is reported as 6.25 µM (≈ 2.51 µg/mL). The MBC ([2]; Staphylococcus aureus, MRSA, Table 4, read-out: MBC, MRSA-2) was 46.9 µM (≈ 18.8 µg/mL), the MBC [2, 9] was 46.9 µM (≈ 18.8 µg/mL) and the “% Hemolysis (200 μM)” value (human red blood cells; human, 1 h, 200 μM, pH 7.2) was 1.3%. The “% Hemolysis at 200 μM” value (human red blood cells; human, 1 h, 200 μM, pH 7.2) was 1.3%.
